PubChem BioAssay (NCI)
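Step 1: Grow cells in 96-well plates. Step 2: Expose to compound for 48 hours at 5 concentrations. Step 3: Interpolate endpoints linearly; if unreached, use highest concentration. Definition used: TGI = concentration required for complete inhibition of growth.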

Columns and labels:
Assay in all cases: NCI-60 cell line screen, 48 h
M19-MEL melanoma = system: M19-MEL melanoma
U251 CNS = system: U251 CNS
UACC-62 melanoma = system: UACC-62 melanoma
SK-MEL-28 melanoma = system: SK-MEL-28 melanoma
EKVX NSCLC = system: EKVX NSCLC
NCI-H522 lung = system: NCI-H522 lung
SK-MEL-5 melanoma = system: SK-MEL-5 melanoma
RXF 393 renal = system: RXF 393 renal
DMS 114 small cell lung = system: DMS 114 small cell lung
A498 renal = system: A498 renal
NCI-H460 lung = system: NCI-H460 lung
MOLT-4 leukemia = system: MOLT-4 leukemia
CCRF-CEM leukemia = system: CCRF-CEM leukemia
DMS 273 small cell lung = system: DMS 273 small cell lung
DLD-1 colon = system: DLD-1 colon
KM20L2 colon = system: KM20L2 colon
OVCAR-5 ovarian = system: OVCAR-5 ovarian
K-562 leukemia = system: K-562 leukemia
CAKI-1 renal = system: CAKI-1 renal
SK-OV-3 ovarian = system: SK-OV-3 ovarian
SW-620 colon = system: SW-620 colon
SK-MEL-2 melanoma = system: SK-MEL-2 melanoma
SN12C renal = system: SN12C renal
SF-295 CNS = system: SF-295 CNS
TK-10 renal = system: TK-10 renal
SF-268 CNS = system: SF-268 CNS
HOP-92 NSCLC = system: HOP-92 NSCLC
KM12 colon = system: KM12 colon
SNB-78 CNS = system: SNB-78 CNS
UO-31 renal = system: UO-31 renal
SR leukemia = system: SR leukemia
SF-539 CNS = system: SF-539 CNS
786-0 renal = system: 786-0 renal
HT29 colon = system: HT29 colon
HOP-62 NSCLC = system: HOP-62 NSCLC
ACHN renal = system: ACHN renal
NCI-H226 lung = system: NCI-H226 lung
SNB-75 CNS = system: SNB-75 CNS
OVCAR-4 ovarian = system: OVCAR-4 ovarian
OVCAR-8 ovarian = system: OVCAR-8 ovarian
IGROV1 ovarian = system: IGROV1 ovarian
LXFL 529 NSCLC = system: LXFL 529 NSCLC
UACC-257 melanoma = system: UACC-257 melanoma
HL-60(TB) leukemia = system: HL-60(TB) leukemia
M14 melanoma = system: M14 melanoma
SNB-19 CNS = system: SNB-19 CNS
NCI-H23 lung = system: NCI-H23 lung
XF 498 CNS = system: XF 498 CNS
OVCAR-3 ovarian = system: OVCAR-3 ovarian
HCT-116 colon = system: HCT-116 colon
A549 NSCLC = system: A549 NSCLC
MALME-3M melanoma = system: MALME-3M melanoma
LOX IMVI melanoma = system: LOX IMVI melanoma
HOP-18 NSCLC = system: HOP-18 NSCLC
HCC-2998 colon = system: HCC-2998 colon
HCT-15 colon = system: HCT-15 colon
RPMI-8226 leukemia = system: RPMI-8226 leukemia
COLO 205 colon = system: COLO 205 colon

Measured: TGI

O=C1c2cc3c(cc2[C@@H]2NC4CCCC14O2)OCO3 (stereo not given in full)
not listed: MALME-3M melanoma | LOX IMVI melanoma | HOP-18 NSCLC | HCC-2998 colon | HCT-15 colon | RPMI-8226 leukemia | COLO 205 colon
> 100 µM: all other assays above

COc1cc(OC)c(C#N)c(OC)c1C
not listed: NCI-H522 lung | SNB-75 CNS | IGROV1 ovarian | M14 melanoma | OVCAR-3 ovarian | HCT-116 colon | HOP-18 NSCLC | HCC-2998 colon | HCT-15 colon | RPMI-8226 leukemia | COLO 205 colon
> 100 µM: all other assays above

CCSc1nc(-c2ccc(OC)cc2)c(C#N)c(=O)n1C1OCC(OC(C)=O)C(OC(C)=O)C1OC(C)=O (stereo not given)
not listed: CCRF-CEM leukemia | OVCAR-8 ovarian | HL-60(TB) leukemia | XF 498 CNS | OVCAR-3 ovarian | LOX IMVI melanoma
> 100 µM: all other assays above
